The text below walks through data of US11078160B2, “Ethynyl compounds, their preparation and their therapeutic use for the treatment of malaria” (SANOFI, priority 2017, dated 2021).

Structures are written as SMILES. Structures can show the parent of a compound that is named as a salt. Where two headings read alike, the source gives them in different places. Where only a bound is given, the exact number is not on record here.

A word on the IC50: it is the concentration that gives 50% inhibition.

Holding throughout (format): cell-based
In experiment [1] the test system is strain NF54 of P. falciparum. Briefly: 3H-hypoxanthine incorporation growth inhibition assay, P. falciparum NF54. How it is done:
The biological activity of compounds of formula (I) according to the invention has been tested on the basis of an IC50 evaluation against the strain NF54 of P. falciparum.
For Hypoxanthine assay, parasite cultures were grown in 100 mm petri-dishes in growth media having 5% haematocrit in tri-gas incubator (Cat #3131, Thermo Scientific Forma Series II Water Jacketed CO2 incubator, sold by Thermofisher) having controlled gas mixtures of 4% CO2 and 3% O2 at temperature 37° C.
Parasite growth and morphology was observed daily using thin smears at 100× (oil immersion) magnification following staining with Giemsa stain.
Parasites use hypoxanthine included in the growth media as a precursor in nucleic acid synthesis. Accordingly, by replacing hypoxanthine in the media by a radioactive hypoxanthine, such as ^3H-hypoxanthine as indicated here-under, the rate of DNA replication and growth rate of the parasites can be measured, in particular in the presence of the tested compounds of the invention.
The growth media used for the above-indicated parasites contains 1 L of RPMI-1640 (sold by Invitrogen), […] of Albumax II (sold by Invitrogen), 5 mg of Hypoxanthine (sold by Sigma), 25 mM Hepes (sold by Invitrogen) and 2.5 mg of Gentamycin (sold by Sigma).
The screening media used contains 1 L of RPMI-1640 (sold by Invitrogen), […] of Albumax II (sold by Invitrogen), 25 mM Hepes (sold by Invitrogen) and 2.5 mg of Gentamycin (sold by Sigma).
For this assay, the above described screening media was used, as well as 20 Ci/mmol of a radioactive hypoxanthine (the ligand ^3H-hypoxanthine (20 Ci/mmol, 1 mCi/mL) sold by the American Radiolabeled Chemicals (ARC) from St Louis, Mo.), some Top Seal A (sold by Perkin Elmer), 96 Well Cell Culture plates (CellStar® sold by Greiner Bio-One GmbH), MicroScint® 20 (sold by Perkin Elmer) and GFB plates (sold by Perkin Elmer).
On each 96 well plate, 3 compounds of formula (I) according to the invention as well as one standard compound (positive control) are each tested in 12 wells in duplicate.
Said standard compound is a mixture of Artesunate and Chloroquine, two well-known anti malaria compounds.
The maximum activity value of the parasites is determined as positive control by observing the parasites in the presence of erythrocytes, while the minimum activity value of the parasites is determined in a negative control by observing the erythrocytes in the absence of parasites.
The tested compounds of the invention were assayed at a final concentration of 10 μM.
In order to do so, stock solutions at a concentration of […] of compound to be tested are made available in high recovery vials at a concentration of 10 mM. From this, a 20 μM stock in Screening media is prepared ([…] of 10 mM compound+996 μl of screening media) to keep % DMSO at 0.4.
Starting from 20 μM stock solution, 100 μl is added in the assay plate already containing 100 μl of screening media and 1:2 fold serial 12 point dilutions are made in the plate (10 μM to 4.8 nM) (100 μl of compound is mixed with 100 μl of screening media already present in plates, and so on).
P. falciparum culture diluted to 0.3% p and 1.25% h—synchronous ring stage. The assay was carried out in sterile, in the 96-well plate.
100 μL of P. falciparum culture was added per well and were then incubated at 37° C. for 48 hours. Smears are then made to check for growth of culture control after 48 hours of incubation.
Once ensured that the culture has grown in % p, 50 μL of 3H-Hypoxanthine (0.5 μCi/well) is added in each well, and the assay plate is further incubated for 24 hours.
After 72 hours, the assay plates are harvested on GFB plates. In order to remove nonspecific binding, the plates are washed with 2.5 ml of cooled distilled water and GFB plates were kept for drying at 37° C. over night or 60° C. for 1 hour.
50 μL of Microscint®-20 was added to each well.
The plates are then read in Top Count (45 sec/well).
The assay data were analysed using Graph pad prism ver.5 software. […]

The subject of experiment [2] is P. falciparum clinical field isolates. Briefly: Ex vivo drug susceptibility assay (schizont maturation, flow cytometry) on P. falciparum clinical field isolates. To be noted: Plasmodium falciparum, isolates from Timika (Papua, Indonesia), 35-56 hours. How it is done: Plasmodium isolates were collected from patients attending malaria clinics in Timika (Papua, Indonesia), a region endemic for multidrug-resistant strains of P. vivax and P. falciparum. Patients with symptomatic malaria presenting to an outpatient facility were recruited into the study if singly infected with P. falciparum or P. vivax, with a parasitaemia of between […], and the majority (>60%) of parasites at ring stage of development. […]
(§1) Drug susceptibility of P. vivax and P. falciparum isolates was measured using a protocol modified from the WHO microtest (see for instance in Marfurt J. et al., Antimicrob Agents Chemother. 2011 September; 55(9):4461).
Two hundred μL of a 2% haematocrit Blood Media Mixture (BMM), consisting of RPMI 1640 medium plus 10% AB+ human serum (P. falciparum) or McCoy's 5A medium plus 20% AB+ human serum (P. vivax) was added to each well of pre-dosed drug plates containing 11 serial concentrations (2-fold dilutions) of the anti-malarials (maximum concentration shown in brackets) CQ (2,993 nM), PIP (1,029 nM), MFQ (338 nM), AS (49 nM), and compound 1b (237 nM). […] Incubation was stopped when >40% of ring stage parasites had reached the mature schizont stage in the drug-free control wells as determined by light microscopy. […]
In general terms: In flow cytometry, cells or beads pass a laser one at a time.

Experiment [3] has as its system P. vivax clinical field isolates. Briefly: Ex vivo drug susceptibility assay (schizont maturation, flow cytometry) on P. vivax clinical field isolates. To be noted: for Drug susceptibility difference between species: P. falciparum versus P. vivax clinical field isolates.
From the text: The biological activity of compound 1b according to the invention has been tested on the basis of an IC50 evaluation against the strain P. vivax.
Plasmodium isolates were collected from patients attending malaria clinics in Timika (Papua, Indonesia), a region endemic for multidrug-resistant strains of P. vivax and P. falciparum. Patients with symptomatic malaria presenting to an outpatient facility were recruited into the study if singly infected with P. falciparum or P. vivax, with a parasitaemia of between […], and the majority (>60%) of parasites at ring stage of development. Venous blood (5 mL) was collected by venepuncture and after removal of host white blood cells by using Plasmodipur filters (EuroProxima B.V., The Netherlands), packed infected red blood cells (iRBCs) were used for the ex vivo drug susceptibility assay.
Standard anti-malarial drugs chloroquine (CQ), piperaquine (PIP), mefloquine (MFQ), and artesunate (AS) (WWARN QA/QC Reference Material Program), and experimental compound 1b were prepared as 1 mg/mL stock solutions in H2O or dimethyl sulfoxide (DMSO) according to the manufacturers' instructions. Drug plates were pre-dosed by diluting the compounds in 50% Methanol followed by lyophilisation and stored at 4° C.
as §1
Two hundred μL of a 2% haematocrit Blood Media Mixture (BMM), consisting of RPMI 1640 medium plus 10% AB+ human serum (P. falciparum) or McCoy's 5A medium plus 20% AB+ human serum (P. vivax) was added to each well of pre-dosed drug plates containing 11 serial concentrations (2-fold dilutions) of the anti-malarials (maximum concentration shown in brackets) CQ (2,993 nM), PIP (1,029 nM), MFQ (338 nM), AS (49 nM), and compound 1b (237 nM). A candle jar was used to mature the parasites at 37° C. for 35-56 hours. Incubation was stopped when >40% of ring stage parasites had reached the mature schizont stage in the drug-free control wells as determined by light microscopy.
Parasite growth was quantified by nucleic acid staining and data acquisition using flow cytometry as described in detail elsewhere6. Parasite growth was quantified for each drug concentration and normalised to the control well.
The dose-response data were analysed using nonlinear regression analysis and the half-maximal inhibition of growth (IC50) value derived using an inhibitory sigmoid Emax model (In Vitro Analysis and Reporting Tool; IVART7).
Drug plate quality was assured by running schizont maturation assays with the chloroquine-resistant strain K1 and the chloroquine-sensitive strain FC27.

The mark [4] stands for this setting: Plasmodium falciparum, NF54, upper bound as printed, 72 hours, 3H-hypoxanthine incorporation, read-out: NF54 IC50.
The mark [5] stands for this setting: measured values printed under the bound, 72 hours, 3H-hypoxanthine incorporation, read-out: NF54 IC50 (nM), measured values.

Regarding `N=C(N)NC(=O)c1cc(C#Cc2ccc(C(F)(F)F)c(C(=O)Nc3ccccn3)c2)cc(C(F)(F)F)c1` [Compound 1a, 5-((3-(carbamimidoylcarbamoyl)-5-(trifluoromethyl)phenyl)ethynyl)-N-(pyridin-2-yl)-2-(trifluoromethyl)benzamide], the half-inhibitory concentration (IC50) was less than 10 nM in experiment [1] (setting [4]) and 7 nM in experiment [1] (setting [5]). Consider `Cl.N=C(N)NC(=O)c1cc(C#Cc2ccc(C(F)(F)F)c(C(=O)Nc3ccccn3)c2)cc(C(F)(F)F)c1` [Compound 1b, 5-((3-(carbamimidoylcarbamoyl)-5-(trifluoromethyl)phenyl)ethynyl)-N-(pyridin-2-yl)-2-(trifluoromethyl)benzamide hydrochloride], for which the 50% inhibitory concentration (IC50) was 18.9 nM in experiment [2]; less than 15 nM in experiment [1] (upper bound, 72 hours, 3H-hypoxanthine incorporation, hydrochloride, read-out: NF54 IC50); 12 nM in experiment [3] (Plasmodium vivax, ex vivo, isolates from Timika (Papua, Indonesia), 35-56 hours). Further, the “Drug susceptibility difference between species” value in experiment [3] was “did not differ significantly”. For the compound `N=C(N)NC(=O)c1cc(C#Cc2ccc(C(F)(F)F)c(C(=O)Nc3ccccn3)c2)cc(C(F)(F)F)c1` [Compound 1c, 5-((3-(carbamimidoylcarbamoyl)-5-(trifluoromethyl)phenyl)ethynyl)-N-(pyridin-2-yl)-2-(trifluoromethyl)benzamide malonic acid], the concentration for half-maximal inhibition (IC50) in experiment [1] (setting [5]) was 17 nM; in experiment [1] (upper bound, 72 hours, 3H-hypoxanthine incorporation, read-out: NF54 IC50), less than 20 nM. On to `Cc1cccc(NC(=O)c2cc(C#Cc3cc(C(=O)NC(=N)N)cc(C(F)(F)F)c3)ccc2C)n1` [Compound 2, 5-((3-((diaminomethylene)carbamoyl)-5-(trifluoromethyl)phenyl)ethynyl)-2-methyl-N-(6-methylpyridin-2-yl)benzamide hydrochloride], for which the IC50 in experiment [1] (Plasmodium falciparum, NF54, read-out: NF54 IC50 (nM)) is less than 25 nM.

As to `Cc1cccc(NC(=O)c2cc(C#Cc3cc(F)cc(C(=O)NC(=N)N)c3)ccc2C(F)(F)F)n1` [Compound 3, 5-((3-(carbamimidoylcarbamoyl)-5-fluorophenyl)ethynyl)-N-(6-methylpyridin-2-yl)-2-(trifluoromethyl)benzamide hydrochloride], in experiment [1] (setting [4]), the IC50 is less than 25 nM. Same read-out and setting: for `Cc1ccc(C#Cc2cc(C(=O)NC(=N)N)cc(C(F)(F)F)c2)cc1C(=O)Nc1ccccn1` [Compound 4, 5-((3-(carbamimidoylcarbamoyl)-5-trifluoromethyl)phenyl)ethynyl)-2-methyl-N-(pyridin-2-yl)benzamide hydrochloride] the value was less than 10 nM.

Turning to `N=C(N)NC(=O)c1cc(C#Cc2ccc(C(F)(F)F)c(C(=O)Nc3ccc(O)cn3)c2)cc(C(F)(F)F)c1` [Compound 5, 5-((3-(carbamimidoylcarbamoyl)-5-(trifluoromethyl)phenyl)ethynyl)-N-(5-hydroxypyridin-2-yl)-2-(trifluoromethyl)benzamide hydrochloride], the 50% inhibitory concentration (IC50) in experiment [1] (setting [4]) was less than 10 nM. As for `N=C(N)NC(=O)c1cc(C#Cc2ccc(Cl)c(C(=O)Nc3ccccn3)c2)cc(C(F)(F)F)c1` [Compound 6, 5-((3-(carbamimidoylcarbamoyl)-5-(trifluoromethyl)phenyl)ethynyl)-2-chloro-N-(pyridin-2-yl)benzamide hydrochloride], in experiment [1] (setting [4]), the IC50 is less than 10 nM.

For the compound `N=C(N)NC(=O)c1cc(F)cc(C#Cc2ccc(C(F)(F)F)c(C(=O)Nc3ccccn3)c2)c1` [Compound 7, 5-((3-(carbamimidoylcarbamoyl)-5-fluorophenyl)ethynyl)-N-(pyridin-2-yl)-2-(trifluoromethyl)benzamide hydrochloride], the half-inhibitory concentration (IC50) in experiment [1] (setting [4]) was less than 20 nM. Take `N=C(N)NC(=O)c1cc(C#Cc2ccc(C(F)(F)F)c(C(N)=O)c2)cc(C(F)(F)F)c1` [Compound 8]: the half-inhibitory concentration (IC50) in experiment [1] (setting [4]) was less than 100 nM. For the compound `C[C@H]1[C@H](OC(=O)CCC(=O)O)O[C@@H]2O[C@@]3(C)CC[C@H]4[C@H](C)CC[C@@H]1[C@@]24OO3` [artesunate], the “Drug susceptibility difference between species” value in experiment [3] is on record as “did not differ significantly”. Still for that read-out and setting: under `OC(c1cc(C(F)(F)F)nc2c(C(F)(F)F)cccc12)C1CCCCN1` (stereo not drawn) [mefloquine] stands “did not differ significantly”. On the same count and under the same terms, for `Clc1ccc2c(N3CCN(CCCN4CCN(c5ccnc6cc(Cl)ccc56)CC4)CC3)ccnc2c1` [piperaquine] the value was “did not differ significantly”.
